Results on five molecules are retold here after patent US10174314B2, “MiRNA for treating head and neck cancer” (INTERNA TECHNOLOGIES B.V., priority 2011, dated 2019).

A word on the IC50: it is the concentration at which inhibition is half-maximal. Low readings indicate inhibition by little substance, high ones a need for much substance.

One data set has as its system ciOKC cells. Put plainly: ATM inhibitor treatment, CellTiter-Blue cell viability. Particulars: 72 hours. It is filed as cell-based, human. As for the experimental part: (§1) Both ciOKC and VU-SCC-120 cells were subjected to a concentration range of 40-0.075 μM ATM inhibitor CP466722 (Axon Medchem, Groningen, The Netherlands). After 72 hours cell viability was assessed with the CellTiter-Blue® cell viability assay.

In data set [1] the test system is VU-SCC-120. The description is as above. It is filed as cell-based, human. The protocol: as §1
A further data set has as its system ATM expression. Nature of the data set: Knockdown of endogenous ATM expression by shRNA constructs, qRT-PCR in ciOKC. In kind it is cell-based, human. Particulars: ciOKC transduced with shRNA; qRT-PCR vs control construct. As for the experimental part:
(§2) Viral supernatants were produced by co-transfection of HEK239T cells using FuGENE® 6 (Roche diagnostics, Woerden, The Netherlands) with the pLKO.1 short-hairpin vector together with the packaging and envelop vectors. Both ciOKC and VU-SCC-120 (HNSCC cell line) were transduced with lentiviruses at two following days for four hours in the presence of 3 μg/ml polybrene (Sigma-Aldrich, Zwijndrecht, The Netherlands). In total 48 hours after transduction, cells were subjected to puromycin selection. For ciOKC this was two days 5 μg/ml and subsequently 5 days of 10 μg/ml puromycin (Sigma-Aldrich). For VU-SCC-120 the selection was performed with 1 μg/ml for seven days.
Total RNA was isolated using the mirVana™ miRNA isolation kit (Ambion, Nieuwerkerk aan den IJssel, The Netherlands) according to the instructions of the manufacturer with as only modification that the columns were eluted by 2×25 μl elution buffer. Expression of hsa-miR-181a, hsa-miR-323, hsa-miR-326, hsa-miR-342, hsa-miR-345 and hsa-miR-371 was analyzed by Taqman® microRNA assays following the instructions of the manufacturer (Applied biosystems, Nieuwerkerk aan den IJssel, The Netherlands). ATM expression was analysed by Taqman® gene expression assay. […] Quantitative RT-PCR reactions without reverse transcriptase were carried out in parallel for each RNA sample to exclude signal by contaminating DNA. […]

The next data set concerns UM-SCC-11B. Nature of the data set: miRNA-3157 mimic transfection, cell viability. It is filed as cell-based, human. Particulars: 30 nM, 96 hours. The protocol:
(§3) Cells were plated and transfected with miRIDIAN microRNA mimics miR-181a, miR-181a*, miR-181a-2, miR-323-5p, miR-323-3p, miR-326-5p, miR-345-5p, miR-342-3p, miR-342-5p, miR-371-3p, miR-371-5p and non-targeting Mimic Negative Control#1 (Dharmacon, Thermo Fisher Scientific, Lafayette, Colo.) in 96-well flat bottom plates (Greiner Bio-One B.V., Alphen a/d Rijn, The Netherlands). MicroRNA mimic for miR-3157 was obtained from Ambion. The non-targeting siCONTROL#1, and the siRNA PLK1 SMARTpool (Dharmacon) were used as negative and positive controls, respectively. Cells were transfected with […] mimic/siRNA and cell line dependent amounts of DharmaFECT1 (Dharmacon) (Table 6). Cell viability was determined, 96 hours after transfection, by adding CellTiter-Blue reagent (Promega, Leiden, The Netherlands). After two hours of incubation at 37° C. fluorescence was analyzed at 540 nm excitation and 590 nm emission wavelength using an Infinite F200 microplate reader (Tecan, Giessen, The Netherlands).
(§4) The cell proliferation has been assessed 96 hours after the transfection of nucleic acids using Dharmafect and the read-out based on the Alamar Blue (resazurin) fluorescent dye for the assessment of mammalian cell cytotoxicity.

The next data set concerns VU-SCC-059. Nature of the data set: miRNA-3157 mimic transfection, cell viability. To be noted: 30 nM, 96 hours. It is filed as cell-based, human. As for the experimental part:
as §3, §4

Data set [2] has as its system VU-SCC-120. Put plainly: miRNA-3157 mimic transfection, cell viability. In kind it is cell-based, human. To be noted: 30 nM, 96 hours. The protocol: as §3, §4
In data set [3] the test system is melanoma or colorectal cancer cells. To be noted: Poell et al. 2012; cited from earlier work.
Another data set concerns normal keratinocytes. Nature of the data set: miRNA-3157 mimic transfection, cell viability. It is filed as cell-based, human. Particulars: 30 nM, 96 hours. The protocol: as §3
Normal oral keratinocytes were isolated and cultured as previously described (van Zeeburg et al., 2010). […]
as §4

Another data set concerns activated BRAF pathway. Particulars: in melanoma or colorectal cancer cells; reported; cited from earlier work.
The next data set relates to precursor line M3. Nature of the data set: Synthetic mimic transfection, cell viability. It is filed as cell-based, human. To be noted: 30 nM mimic, 96 hours after transfection. As for the experimental part:
as §3, §4

A further data set has as its system tumour cell lines. Nature of the data set: Synthetic mimic/siRNA transfection, CellTiter-Blue cell viability, panel of cell lines. To be noted: 30 nM mimic, 96 hours after transfection. In kind it is cell-based, human. As for the experimental part: as §3, §4
For orientation: Resazurin is reduced to fluorescent resorufin, in cell work by metabolically active cells.

Data set [4] concerns VU-SCC-120. Nature of the data set: Lentiviral shRNA ATM knockdown, cell survival. To be noted: VU-SCC-120 vs ciOKC. It is filed as cell-based, human.
Excerpt: Lentiviral vectors with short-hairpin RNA sequences targeting ATM were obtained from the TRC short-hairpin library (Sigma-Aldrich, Zwijndrecht, the Netherlands) that is available at VU university medical center. Each shRNA sequence is complementary to an unique part of the ATM mRNA sequence.
as §2
Therefore we introduced five lentiviral shRNA constructs designed to specifically knockdown ATM expression. Each shRNA sequence was complementary to an unique part of the ATM mRNA sequence.

“Also recorded” adds a separate entry of the source.

Turning to `COc1cc2ncnc(-n3nc(-c4ccccn4)nc3N)c2cc1OC` [CP466722], the IC50 worked out at 8.2 µM with ciOKC cells and 2.6 µM in the data set on VU-SCC-120 [1] (VU-SCC-120, 72 hours). Moreover, in the data set on VU-SCC-120 [1] (p-value <0.05 by T-testing), the “change of IC50 ciOKC to VU-SCC-120” value came out at 3 fold.

As to “ATM shRNA number 5: lentiviral pLKO.1 short-hairpin construct targeting ATM from the TRC library; probably SEQ ID NO: 359 (CCGGGCCGTCAACTAGAACATGATACTCGAGTATCATGTTCTAGTTGACGGCTTTTTG)”, the “downregulation of ATM expression levels” value in the data set on ATM expression is listed as “no significant downregulation”.

For the molecule “miRNA-3157: microRNA mimic for miR-3157 from Ambion; mature UUCAGCCAGGCUAGUGCAGUCU (SEQ ID NO: 364) (listed as RNA, chemistry not given here)”, the cell viability result in the data set on UM-SCC-11B is recorded as “inhibits cell viability”; with VU-SCC-059, “inhibits cell viability”; in the data set on VU-SCC-120 [2], “inhibits cell viability”; with normal keratinocytes it was “not lethal; also recorded: does not inhibit cell viability”. For the same molecule, in data set [3], the “lethality to melanoma or colorectal cancer cells” value is “lethal”. Besides, in the data set with activated BRAF pathway, the “inhibition of activated BRAF pathway” value is reported as “selective inhibitor of activated BRAF pathway”. The “cell viability in precursor line M3” value with precursor line M3 is given as “not lethal”. Also, the “cell viability in tumour cell lines” value with tumour cell lines is “lethal for three out of four tumor cell lines”.

On to “mimic 323-5p: miRIDIAN microRNA mimic (Dharmacon); AGGUGGUCCGUGGCGCGUUCGC (SEQ ID NO: 22) (listed as RNA, chemistry not given here)”, for which, in the data set on tumour cell lines, the “cell viability in tumour cell lines” value is reported as “cause a decrease in all tumour cell lines”.

In the case of “shRNA ATM1: lentiviral pLKO.1 short-hairpin construct targeting ATM from the TRC library; probably SEQ ID NO: 355 (CCGGCCTGCCAACATACTTTAAGTACTCGAGTACTTAAAGTATGTTGGCAGGTTTTTG)”, in the data set on VU-SCC-120 [4], the “toxicity in the tumour cell line as compared to the ciOKC cells (therapeutic window)” value was “at least 8 times”.
